Test results taken from ChEMBL document CHEMBL3627696, “Pontemazines A and B, phenazine derivatives containing a methylamine linkage from Streptomyces sp. UT1123 and their protective effect to HT-22 neuronal cells” (2015).
Activity calls are given as the source filed them. The rule behind the calls is not given here.

How the values were obtained:
[1] = test system: HT-22; experiment: Neuroprotective activity against monosodium glutamate-induced cell death in mouse HT22 cells at 10 uM preincubated for 2 hrs followed by monosodium glutamate addition measured after 24 hrs by phase contrast microscopic analysis; assay type: functional, cell-based
[2] = test system: HT-22; experiment: Neuroprotective activity against monosodium glutamate-induced cell death in mouse HT22 cells assessed as cell viability at 10 uM preincubated for 2 hrs followed by monosodium glutamate addition measured after 24 hrs by MTT assay (reference value: 50%); assay type: functional; conditions: read-out: Activity
[3] = test system: HT-22; experiment: Neuroprotective activity against monosodium glutamate-induced cell death in mouse HT22 cells at 5 uM preincubated for 2 hrs followed by monosodium glutamate addition measured after 24 hrs by phase contrast microscopic analysis; assay type: functional, cell-based
[4] = test system: HT-22; experiment: Neuroprotective activity against monosodium glutamate-induced cell death in mouse HT22 cells assessed as cell viability at 25 to 50 uM preincubated for 2 hrs followed by monosodium glutamate addition measured after 24 hrs by MTT assay (reference value: 50%); assay type: functional

Row | SMILES | Activity [1] | viability at 10 µM [2] | Activity [3] | Activity [4]
1 | COc1ccc(CNc2ccccc2C(N)=O)c2nc3cccc(C(N)=O)c3nc12 | Active | 90% | inactive | –
2 | COc1ccc(CNc2ccccc2C(N)=O)c2nc3cccc(C(=O)O)c3nc12 | Active | 90% | inactive | >90%
